Consider ten molecules from patent US20160354333A1, “COMPOSITIONS OF POLYUNSATURATED FATTY ACIDS AND METHODS OF USE THEREOF” (UND Life Sciences, LLC, priority 2015, published 2016).

Data set [1] concerns bone marrow cells of mice. Briefly: Side effects of gamma-radiation and cis-platinum on bone marrow cells of mice. Type of data set: in vivo. The source says:
Thus, it appears that when PUFAs and conventional anti-cancer drugs/agents are given together they not only act to potentiate the cytotoxic action of each other on the tumor cells and thus, produce synergistic and/or additive action on their ability to eliminate the tumor cells but it will also lead to elimination, reduction, or amelioration of the side effects of conventional anti-cancer agents. Since, PUFAs are able to potentiate the cytotoxic action(s) of conventional anti-cancer drugs (agents) and cytokines; it is also possible that this will lead to a significant reduction in the doses of these latter agents without compromising the ultimate benefit namely, elimination of tumor cells or the tumor. Accordingly, certain embodiments are directed to methods comprising administering a PUFA (e.g., GLA) containing compositions as described herein and a conventional anti-cancer drug to a subject in need thereof.

In data set [2] the test system is IFN-sensitive / IFN-resistant tumor cells. Briefly: Apoptosis and lipid droplet accumulation in IFN-sensitive and IFN-resistant tumor cells. Type of data set: cell-based. The settings on record: IFN-resistant cells pre-treated with GLA/AA, then exposed to IFN. The source says: The present inventor also unexpectedly discovered that the anti-cancer actions of interferon (IFN) and tumor necrosis factor-a (TNF-a) need the presence of substantial amounts of cellular content of GLA, AA, EPA and DHA (˜GLA≧AA>EPA>DHA).

Data set [3] has as its system tumor cells. Briefly: Tumoricidal action: ability to induce apoptosis of tumor cells. Type of data set: cell-based. The source says: For instance, GLA is metabolized in the tumor cells to form 15-, 12- and 8-OH 20 carbon and 13-OH 18 carbon fatty acid derivatives that seem to be responsible for the apoptosis of tumor cells. In contrast to this, DGLA could go through an exclusive C-8 oxygenation pathway during COX-catalyzed lipid peroxidation in addition to a C-15 oxygenation pathway shared by both DGLA and AA, and that the exclusive C-8 oxygenation could lead to the production of distinct DGLA's free radical derivatives that may be correlated with DGLA's anti-proliferation activity. As shown below DGLA can go through a unique C-8 oxygenation reaction pathway, in addition to a C-15 oxygenation pathway shared by both DGLA and AA.
similar to the one that is formed from DGLA as described above) product, instead of the more common aldehyde. Thus, it is evident that the peroxidation products formed from GLA, DGLA and AA are totally different, and this may account for the differences in their tumoricidal action wherein GLA>DGA>AA with regard to their ability to induce apoptosis of tumor cells.

The conditions of data set [4]: 1 mg GLA, 0.01% ethanol PBS/saline; GLA:lithium ratio exceeding about 1:0.01. Here is the method: The effect of lithium as an exemplary stabilizing agent in compositions of GLA was tested as follows. To 1 mg (1000 μg) of GLA dissolved in a solution of PBS/saline comprising 0.01% ethanol was added different concentrations of lithium (as lithium chloride), and after a specific period of incubation the concentration of GLA present in the solution was tested.

The test system of another data set is cancer. The settings on record: free acid form versus other forms. From the text:
In general, it was believed that the potency of actions of a free acid form is equal to or similar to sodium salt, ethyl ester, methyl ester or other forms of salts, esters, glycerides, amides, or phospholipids, or alkylated, alkoxylated, halogenated, sulfonated, or phosphorylated forms of the fatty acid.

Another data set relates to normal cells. The settings on record: 10 μg/ml GLA, 1×10^4 cells, 72 hrs. From the text: FIG. 9 provides cytotoxicity data in normal cells for GLA solutions in varying concentrations of ethanol.
The subject of data set [5] is tumor cells. The settings on record: solvent (ethyl alcohol) content above 0.01% and lower than 0.001%.
For data set [6] the following is noted: 0.01% ethanol/saline/PBS pH 7.4 at 37° C. versus saline/PBS, no lithium. From the text:
FIG. 7 is additional stability data for GLA solutions comprising 0.01% ethanol/saline/PBS or saline/PBS without added lithium.

In another data set the test system is cancer cells. The settings on record: 72 hrs.
How the values of data set [7] were obtained:
In a separate experiment, GLA was dissolved in saline/PBS (pH 7.4) comprising 0.01% ethanol at 37° C. or saline/PBS (pH 7.4), and different concentrations of lithium was added. At the end of the incubation time the concentration of GLA present was tested. […] The same test system is used to test the effect of Mg, Mn, Zn, Fe, Cu salts on the stability of GLA. The concentrations of these metals used are same as that of Lithium.

Another data set relates to IMR-32 cells. In words: Growth of IMR-32 cells. Type of data set: cell-based. The arrangement: unit of the concentration uncertain. The source says: hypercalcemia, tumor cancer cell proliferation, tumor angiogenesis and resistance of tumor to anti-VEGF therapy (see FIG. 1). In addition, PGE2 may have the ability to modulate NO generation. […] Though this growth promoting action of indomethacin and NDGA could be attributed to their non-specific anti-oxidant actions, it is equally possible that some unknown products have been generated from PUFAs that have growth promoting actions. […] Accordingly, treatment of tumor cells with PUFAs according to embodiments of the invention is believed to be a viable treatment method for cancers, such as glioma.

Read-outs that look alike come from different tables or passages of the source.

Experimental for cancer cells: 1×10^4 cancer cells or normal cells were incubated with the GLA composition for 72 hrs and viability of the cells in vitro determined.

Regarding `CCCCC/C=C\C/C=C\C/C=C\C/C=C\CCCC(=O)O` [AA, arachidonic acid, reference compound], in [1], the “side effects of gamma-radiation and cis-platinum to bone marrow cells” value was “prevent or ameliorate the side effects”. The “apoptosis and lipid droplets” value in data set [2] is “both induction of apoptosis and accumulation of lipid droplets in the tumor cells were seen”. Also, the “rank order of ability to induce apoptosis of tumor cells” value (shortened to “rank order of ability”) with tumor cells [3] was “GLA>DGA>AA”.
As to `CCCCC/C=C\C/C=C\C/C=C\CCCCCCC(=O)O` [DGLA, di-homo gamma linolenic acid], the “rank order of ability” value with tumor cells [3] is reported as “GLA>DGA>AA”.
Take `CCCCC/C=C\C/C=C\C/C=C\CCCCC(=O)O` [GLA, gamma-linolenic acid]: the “generation of LXA4” value with RIN cells (PUFAs 15 μg, pretreatment with alloxan, simultaneous treatment with STZ) is “greater than or equal to all other fatty acids tested”. For the same molecule, the “formation of LXA4” value in the data set on RIN cells (studies performed in support of the invention) is listed as “enhances the formation of LXA4”. For the same molecule, the “side effects of gamma-radiation and cis-platinum to bone marrow cells” value in data set [1] was “prevent or ameliorate the side effects”. The “stability of GLA (percentage of original GLA remaining)” value in data set [4] is “stability of GLA decreased”; in data set [6], “stabilizing effect”; in data set [7] (comparison solutions, printed as 'solutions with ethanol'), “less stable”; in [7] (saline/PBS pH 7.4 with 0.01% ethanol at 37° C. plus lithium), “stabilizing effect”. In the data set on cancer, the “potency of anti-cancer action” value is on record as “more potent than sodium salt, ethyl ester, methyl ester”. For the same molecule, the “background death of cells” value was 10-15% in the data set on normal cells and 10-15% in the data set with cancer cells (10 μg/ml GLA, 1×10^4 cells). The “apoptosis and lipid droplets” value in data set [2] is “both induction of apoptosis and accumulation of lipid droplets in the tumor cells were seen”. The “rank order of ability” value with tumor cells [3] was “GLA>DGA>AA”. Also, the “activity, stability and tumoricidal action” value with tumor cells [5] was “relatively inactive, unstable and its tumoricidal action inefficient”. Moreover, the “concentration of GLA relative to lithium” value in [7] (Mg, Mn, Zn, Fe, Cu salts, same concentrations and incubation periods as lithium) is “decrease the concentration of GLA”.
Turning to `CCCCC/C=C\C\C=C/C=C/C=C/[C@@H](SC[C@H](N)C(=O)NCC(=O)O)[C@@H](O)CCCC(=O)O` [LTD4], the “growth of IMR-32 cells” value with IMR-32 cells is recorded as “growth inhibitory action”.
Still for that read-out and setting: the value for `CCCCC[C@H](O)/C=C/C=C\C=C\C=C\[C@@H](O)[C@@H](O)CCCC(=O)O` [LXA4] was “inhibited the growth of IMR-32 cells”; that for `CCCCC[C@H](O)/C=C/[C@H]1[C@H](O)CC(=O)[C@@H]1CCCCCCC(=O)O` [PGE1] was “growth inhibitory action”; that for `CCCCC[C@H](O)/C=C/[C@H]1[C@H](O)CC(=O)[C@@H]1C/C=C\CCCC(=O)O` [PGE2] was “growth inhibitory action”.
Consider `CCO` [ethanol], for which, in the data set on cancer cells (with 10 μg/ml GLA in saline/PBS), the “concentration of ethanol resulting in cell death” value is “above 0.01%”.
As to `COc1ccc2c(c1)c(CC(=O)O)c(C)n2C(=O)c1ccc(Cl)cc1` [indomethacin], the “growth of IMR-32 cells” value with IMR-32 cells (60 (unit uncertain)) was “enhanced the growth of IMR-32 cells”.
As to `CC(Cc1ccc(O)c(O)c1)C(C)Cc1ccc(O)c(O)c1` (stereo not shown) [nordihydroguaiaretic acid], the “growth of IMR-32 cells” value in the data set on IMR-32 cells (20 (unit uncertain)) is listed as “enhanced the growth of IMR-32 cells”.
